{"source": "patent US20230340011A1", "about": "(Asteroid Therapeutics, priority 2022, published 2023)"}
{"biological_target": "SREBP-2 (Homo sapiens (Human), UniProt Q12772)", "test": "In vitro assay SREBP-2: PathHunter U2OS SREBP-2 Nuclear Translocation Cell Line, U18666A-stimulated", "assay_type": "cell-based", "details": "not given", "units": {"IC50": "nM"}}
{"smiles": "C[C@H](CCC(=O)N1CCN(C(=O)OC2COC2)CC1)[C@H]1CC[C@H]2[C@@H]3CC=C4C[C@@H](O)CC[C@]4(C)[C@H]3CC[C@]12C", "note": "[Example 425, oxetan-3-yl4-((R)-4-((3S,8S,9S,10R,13R,14S,17R)-3-hydroxy-10,13-dimethyl-2,3,4,7,8,9,10,11,12,13,14,15,16,17-tetradecahydro-1H-cyclopenta[a]phenanthren-17-yl)pentanoyl)piperazine-1-carboxylate]", "IC50": "< 250"}
{"biological_target": "SREBP-2 (Homo sapiens (Human), UniProt Q12772)", "test": "In vitro assay SREBP-2: PathHunter U2OS SREBP-2 Nuclear Translocation Cell Line, U18666A-stimulated", "assay_type": "cell-based", "details": "PathHunter U2OS SREBP-2 nuclear translocation cells, U18666A 10 μM, overnight (16 hours)", "units": {"IC50": "nM"}}
{"smiles": "C[C@H](CCC(=O)N1CCC(OC(=O)N(C)C)CC1)[C@H]1CC[C@H]2[C@@H]3CC=C4C[C@@H](O)CC[C@]4(C)[C@H]3CC[C@]12C", "note": "[Example 418, 1-((R)-4-((3S,8S,9S,10R,13R,14S,17R)-3-hydroxy-10,13-dimethyl-2,3,4,7,8,9,10,11,12,13,14,15,16,17-tetradecahydro-1H-cyclopenta[a]phenanthren-17-yl)pentanoyl)piperidin-4-yl dimethylcarbamate]", "IC50": "1000 to 10000"}
{"smiles": "CNC(=O)NC[C@@H](C)[C@H]1CC[C@H]2[C@@H]3CC=C4C[C@@H](O)CC[C@]4(C)[C@H]3CC[C@]12C", "note": "[Example 464, 1-((S)-2-((3S,8S,9S,10R,13S,14S,17R)-3-hydroxy-10,13-dimethyl-2,3,4,7,8,9,10,11,12,13,14,15,16,17-tetradecahydro-1H-cyclopenta[a]phenanthren-17-yl)propyl)-3-methylurea]", "IC50": "250 to 1000"}
{"smiles": "C[C@H](Oc1cccnc1CO)[C@H]1CC[C@H]2[C@@H]3CC=C4C[C@@H](O)CC[C@]4(C)[C@H]3CC[C@]12C", "note": "[Example 434, (3S,8S,9S,10R,13S,14S,17S)-17-((S)-1-((2-(hydroxymethyl)pyridin-3-yl)oxy)ethyl)-10,13-dim ethyl-2,3,4,7,8,9,10,11,12,13,14,15,16,17-tetradecahydro-1H-cyclopenta[a]phenanthren-3-ol]", "IC50": "250 to 1000"}
{"smiles": "CCN(CC(=O)O)C(=O)CC[C@@H](C)[C@H]1CC[C@H]2[C@@H]3CC=C4C[C@@H](O)CC[C@]4(C)[C@H]3CC[C@]12C", "note": "[Example 109, N-ethyl-N—((R)-4-((3S,8S,9S,10R,13R,14S,17R)-3-hydroxy-10,13-dimethyl-2,3,4,7,8,9,10,11,12,13,14,15,16,17-tetradecahydro-1H-cyclopenta[a]phenanthren-17-yl)pentanoyl)glycine]", "IC50": "> 10000"}
{"smiles": "C[C@H](CCC(=O)N1CCC[C@@H](Oc2ccncc2)C1)[C@H]1CC[C@H]2[C@@H]3CC=C4C[C@@H](O)CC[C@]4(C)[C@H]3CC[C@]12C", "note": "[Example 521, (R)-4-((3S,8S,9S,10R,13R,14S,17R)-3-hydroxy-10,13-dimethyl-2,3,4,7,8,9,10,11,12,13,14,15,16,17-tetradecahydro-1H-cyclopenta[a]phenanthren-17-yl)-1-((R)-3-(pyridin-4-yloxy)piperidin-1-yl)pentan-1-one]", "IC50": "< 250"}
{"smiles": "C[C@H](Oc1ccc(CO)nc1)[C@H]1CC[C@H]2[C@@H]3CC=C4C[C@@H](O)CC[C@]4(C)[C@H]3CC[C@]12C", "note": "[Example 435, (3S,8S,9S,10R,13S,14S,17S)-17-((S)-1-((6-(hydroxymethyl)pyridin-3-yl)oxy)ethyl)-10,13-dim ethyl-2,3,4,7,8,9,10,11,12,13,14,15,16,17-tetradecahydro-1H-cyclopenta[a]phenanthren-3-ol]", "IC50": "250 to 1000"}
{"smiles": "C[C@H](CCC(=O)N1CCN(C(N)=O)CC1)[C@H]1CC[C@H]2[C@@H]3CC=C4C[C@@H](O)CC[C@]4(C)[C@H]3CC[C@]12C", "note": "[Example 4, 4—((R)-4-((3S,8S,9S,10R,13R,14S,17R)-3-hydroxy-10,13-dimethyl-2,3,4,7,8,9,10,11,12,13,14,15,16,17-tetradecahydro-1H-cyclopenta[a]phenanthren-17-yl)pentanoyl)piperazine-1-carboxamide]", "IC50": "< 250"}
{"smiles": "C[C@H](CCC(=O)N1CCNCC1)[C@H]1CC[C@H]2[C@@H]3CC=C4C[C@@H](O)CC[C@]4(C)[C@H]3CC[C@]12C", "note": "[Example 2, (R)-4-((3S,8S,9S,10R,13R,14S,17R)-3-hydroxy-10,13-dimethyl-2,3,4,7,8,9,10,11,12,13,14,15,16,17-tetradecahydro-1H-cyclopenta[a]phenanthren-17-yl)-1-(piperazin-1-yl) pentan-1-one]", "IC50": "250 to 1000"}
{"biological_target": "LXRβ (Homo sapiens (Human), UniProt P55055)", "sequence (P55055 whole entry, the tested form may be a part)": "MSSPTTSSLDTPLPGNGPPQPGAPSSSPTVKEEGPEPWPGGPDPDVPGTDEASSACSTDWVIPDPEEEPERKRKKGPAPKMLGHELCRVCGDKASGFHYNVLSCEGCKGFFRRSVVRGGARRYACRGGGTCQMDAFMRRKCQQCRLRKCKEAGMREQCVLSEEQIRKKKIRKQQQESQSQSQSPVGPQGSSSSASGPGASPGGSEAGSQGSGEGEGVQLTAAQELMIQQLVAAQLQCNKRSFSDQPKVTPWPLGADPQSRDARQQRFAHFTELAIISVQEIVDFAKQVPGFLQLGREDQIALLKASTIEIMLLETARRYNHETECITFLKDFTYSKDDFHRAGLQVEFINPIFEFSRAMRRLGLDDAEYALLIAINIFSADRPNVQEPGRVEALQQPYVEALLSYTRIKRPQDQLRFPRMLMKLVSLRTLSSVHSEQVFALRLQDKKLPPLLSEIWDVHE", "test": "In vitro assay LXRβ: PathHunter NHR CHO cells, LXRβ / Steroid Receptor Co-activator Peptide enzyme fragment complementation", "assay_type": "cell-based", "details": "PathHunter NHR CHO cells, full-length human LXRβ and SRCP, chemiluminescent signal; read-out: LXRβ PPI", "protocol": "PathHunter NHR CHO cells stably transfected with tagged full-length human LXRβ and a nuclear fusion protein containing Steroid Receptor Co-activator Peptide (SRCP). The full-length human LXRβ was tagged with the ProLink™ component of the DiscoverX Enzyme Fragment Complementation (EFC) system and the SRCP domain is fused to the enzyme acceptor component (EA) expressed in the nucleus. Cells were seeded in a total volume of 20 μL into white walled, 384-well microplates and incubated at 37° C. overnight prior to testing. Assay media contained charcoal-dextran filtered serum to reduce the level of hormones present. Final assay vehicle concentration was 1%. […] Microplates were read following signal generation with a PerkinElmer Envision instrument for chemiluminescent signal detection.", "units": {"EC50": "nM"}}
{"smiles": "CON(CC(=O)OC(C)(C)C)C(=O)CC[C@@H](C)[C@H]1CC[C@H]2[C@@H]3CC=C4C[C@@H](O)CC[C@]4(C)[C@H]3CC[C@]12C", "note": "[Example 75, tert-butyl N—((R)-4-((3S,8S,9S,10R,13R,14S,17R)-3-hydroxy-10,13-dimethyl-2,3,4,7,8,9,10,11,12,13,14,15,16,17-tetradecahydro-1H-cyclopenta[a]phenanthren-17-yl)pentanoyl)-N-methoxyglycinate]", "EC50": "250 to 1000"}
{"smiles": "CNC(=O)C(=O)O[C@@H](C)[C@H]1CC[C@H]2[C@@H]3CC=C4C[C@@H](O)CC[C@]4(C)[C@H]3CC[C@]12C", "note": "[Example 145, (S)-1-((3S,8S,9S,10R,13S,14S,17S)-3-hydroxy-10,13-dimethyl-2,3,4,7,8,9,10,11,12,13,14,15,16,17-tetradecahydro-1H-cyclopenta[a]phenanthren-17-yl)ethyl 2-(methylamino)-2-oxoacetate]", "EC50": "> 10000"}
{"smiles": "CCN(OC)C(=O)CC[C@@H](C)[C@H]1CC[C@H]2[C@@H]3CC=C4C[C@@H](O)CC[C@]4(C)[C@H]3CC[C@]12C", "note": "[Example 11, (R)—N-ethyl-4-((3S,8S,9S,10R,13R,14S,17R)-3-hydroxy-10,13-dimethyl-2,3,4,7,8,9,10,11,12,13,14,15,16,17-tetradecahydro-1H-cyclopenta[a]phenanthren-17-yl)-N-methoxypentanamide]", "EC50": "250 to 1000"}
{"smiles": "C[C@H](CCC(=O)N1CCC(CN(C)S(C)(=O)=O)CC1)[C@H]1CC[C@H]2[C@@H]3CC=C4C[C@@H](O)CC[C@]4(C)[C@H]3CC[C@]12C", "note": "[Example 230, N-((1-((R)-4-((3S,8S,9S,10R,13R,14S,17R)-3-hydroxy-10,13-dimethyl-2,3,4,7,8,9,10,11,12,13,14,15,16,17-tetradecahydro-1H-cyclopenta[a]phenanthren-17-yl)pentanoyl)piperidin-4-yl)methyl)-N-methylmethanesulfonamide]", "EC50": "> 10000"}
{"smiles": "C[C@H](CCC(=O)N1O[C@@H]2C[C@H]1[C@@H](O)[C@H]2O)[C@H]1CC[C@H]2[C@@H]3CC=C4C[C@@H](O)CC[C@]4(C)[C@H]3CC[C@]12C", "note": "[Example 55, (R)-1-((1R,4S,5R,6R)-5,6-dihydroxy-2-oxa-3-azabicyclo[2.2.1]heptan-3-yl)-4-((3S,8S,9S,10R,13R,14S,17R)-3-hydroxy-10,13-dimethyl-2,3,4,7,8,9,10,11,12,13,14,15,16,17-tetradecahydro-1H-cyclopenta[a]phenanthren-17-yl)pentan-1-one]", "EC50": "> 10000"}
{"smiles": "C[C@H](CCC(=O)N1CCN(c2ccncn2)CC1)[C@H]1CC[C@H]2[C@@H]3CC=C4C[C@@H](O)CC[C@]4(C)[C@H]3CC[C@]12C", "note": "[Example 302, (R)-4-((3S,8S,9S,10R,13R,14S,17R)-3-hydroxy-10,13-dimethyl-2,3,4,7,8,9,10,11,12,13,14,15,16,17-tetradecahydro-1H-cyclopenta[a]phenanthren-17-yl)-1-(4-(pyrimidin-4-yl)piperazin-1-yl)pentan-1-one]", "EC50": "> 10000"}
{"smiles": "C[C@H](CCC(=O)N1CCN(c2cccnc2)CC1)[C@H]1CC[C@H]2[C@@H]3CC=C4C[C@@H](O)CC[C@]4(C)[C@H]3CC[C@]12C", "note": "[Example 306, (4R)-4-[(1R,3aS,3bS,7S,9aR,9bS,11aR)-7-hydroxy-9a,11a-dimethyl-1H,2H,3H,3aH,3bH,4H,6H,7H,8H,9H,9aH,9bH,10H,11H,11aH-cyclopenta[a]phenanthren-1-yl]-1-[4-(pyridin-3-yl)piperazin-1-yl]pentan-1-one]", "EC50": "> 10000"}
{"smiles": "CNc1nccc(N2CCN(C(=O)CC[C@@H](C)[C@H]3CC[C@H]4[C@@H]5CC=C6C[C@@H](O)CC[C@]6(C)[C@H]5CC[C@]34C)CC2)n1", "note": "[Example 561, (R)-4-((3S,8S,9S,10R,13R,14S,17R)-3-hydroxy-10,13-dimethyl-2,3,4,7,8,9,10,11,12,13,14,15,16,17-tetradecahydro-1H-cyclopenta[a]phenanthren-17-yl)-1-(4-(2-(methylamino)pyrimidin-4-yl)piperazin-1-yl)pentan-1-one]", "EC50": "> 10000"}
{"smiles": "CCCCN(OC)C(=O)CC[C@@H](C)[C@H]1CC[C@H]2[C@@H]3CC=C4C[C@@H](O)CC[C@]4(C)[C@H]3CC[C@]12C", "note": "[Example 17, (R)—N-butyl-4-((3S,8S,9S,10R,13R,14S,17R)-3-hydroxy-10,13-dimethyl-2,3,4,7,8,9,10,11,12,13,14,15,16,17-tetradecahydro-1H-cyclopenta[a]phenanthren-17-yl)-N-methoxypentanamide]", "EC50": "1000 to 10000"}
{"smiles": "C[C@H](CCC(=O)N1CCC[C@H](Oc2ccncn2)C1)[C@H]1CC[C@H]2[C@@H]3CC=C4C[C@@H](O)CC[C@]4(C)[C@H]3CC[C@]12C", "note": "[Example 218, (R)-4-((3S,8S,9S,10R,13R,14S,17R)-3-hydroxy-10,13-dimethyl-2,3,4,7,8,9,10,11,12,13,14,15,16,17-tetradecahydro-1H-cyclopenta[a]phenanthren-17-yl)-1-((S)-3-(pyrimidin-4-yloxy)piperidin-1-yl)pentan-1-one]", "EC50": "250 to 1000"}
